What was measured:
Obese diabetic mice = assay: OGTT in obese diabetic mice after chronic SHP2 inhibition; conditions: gavage 50 mg/kg/day
Protocol: Obese diabetic mice were treated by gavage (50 mg/kg/day). After 15 days of treatment an OGTT was performed (FIG. 1).

[1] = system: renal fibrosis induced by carbon tetrachloride; conditions: Kostallari et al., 2018; cited from earlier work
[2] = Garcia Fortanet et al., J Med Chem 2016; cited from earlier work
[3] = after 15 days of treatment, compared to control

body composition (Obese diabetic mice; 15 days of treatment): without any change
weight (Obese diabetic mice; 15 days of treatment): without any change
Structure (SMILES): CC1(N)CCN(c2cnc(-c3cccc(Cl)c3Cl)c(N)n2)CC1 [SHP099, 6-(4-amino-4-methylpiperidin-1-yl)-3-(2,3-dichlorophenyl)pyrazin-2-amine]
fasting blood glucose (Obese diabetic mice; [3]): decreased fasting blood glucose
glucose tolerance (OGTT) (Obese diabetic mice; [3]): significant improvement in the glucose tolerance
effectiveness in treatment of renal fibrosis [1]: effectiveness in treatment of renal fibrosis
oral bioavailability [2]: good
tolerance [2]: good tolerance

Source: patent publication US20250090529A1, “USE OF SHP2 INHIBITORS FOR THE TREATMENT OF INSULIN RESISTANCE” (INSERM (INSTITUT NATIONAL DE LA SANTÉ ET DE LA RECHERCHE …, priority 2018, published 2025)
